Experimental data reported in US20160083374A1, “AMORPHOUS FORM OF CANAGLIFLOZIN AND PROCESS FOR PREPARING THEREOF” (CADILA HEALTHCARE LIMITED, priority 2013, published 2016).

How the values were obtained:
[1] = cited from earlier work
[2] = Solid-form stability under normal stability conditions; type: physicochemical; details: amorphous canagliflozin obtained by removal of solvent per the invention
Text: The obtained amorphous canagliflozin is stable under normal stability conditions and substantially free from residual solvent. Therefore, there is no physical change observed from amorphous form to crystalline form during the stability.
In another general aspect, the stable amorphous form of canagliflozin, is stored under nitrogen atmosphere and packed in a double polythene bag tied with a thread, keeping primary packing containing amorphous canagliflozin or salts thereof inside a black color polyethylene bag containing oxygen busters and sealing it, placing above the double polyethylene bag inside a triple laminated bag optionally containing oxygen busters and sealing it, and placing the sealed triple laminated bag inside a closed high density polyethylene (HDPE) container and storing in controlled environment chamber at about 25° C. and/or 40° C.

Cc1ccc([C@@H]2O[C@H](CO)[C@@H](O)[C@H](O)[C@H]2O)cc1Cc1ccc(-c2ccc(F)cc2)s1 [amorphous canagliflozin]
physical change between sorption/desorption cycles ([1]; amorphous canagliflozin of US '487 A1, humidity increased from 70% to 90% RH): conversion or partial conversion from the amorphous state to a crystalline state | hygroscopicity by DVS ([1]; amorphous canagliflozin prepared by the process of US '487 A1 (toluene solution into n-heptane)): hygroscopic | stability of amorphous form (change from amorphous to crystalline form) [2]: stable
